This note sets out measurements from patent US11246818B2, “Peptides and compositions for use in cosmetics” (LIPOTRUE, S.L., priority 2017, dated 2022).

Assay [1] can be described thus: DPPH free radical scavenging assay in tubo. The format is biochemical. The source says: The capacity to scavenge the stable DPPH free radical can be expressed as a measure of antioxidant activity.
During this assay, the purple chromogen (DPPH) radical was reduced by antioxidant/reducing compounds to the corresponding pale-yellow hydrazine. The reduction of the purple chromogen radical by hydrogen-donating antioxidants was monitored by the decrease of optical density at long wavelengths (515-520 nm).
Ascorbic acid was also included in the assay as positive control for scavenger activity evaluation at 30 μM and 60 μM. After 30 minutes of incubation at room temperature and gentle shaking, the absorbance at 520 nm of each well was determined using the microplate reader Multiskan FC (Thermo Fisher Scientific, MA, USA), being directly proportional to the amount of DPPH left (not-scavenged) in the reaction mixture. Absorbance values were normalized on the basis of the control (non-treated wells) which was stablished as 100%, obtaining the corresponding percentage of activity for each of the treatments.
(The DPPH test is a chemical assay of radical scavenging.)

The nature of assay [2]: Trolox Equivalent Antioxidant Capacity (TEAC), ABTS Decolorization Assay. Type of assay: biochemical. As for the experimental part: As positive controls of the assay, ascorbic acid 2-glucoside (hereinafter, AA-2G) and magnesium ascorbyl phosphate (hereinafter, MAP) were tested.
TEAC assay was used in this case. Said assay measures the antioxidant capacity of a given substance, as compared to the standard, Trolox, an analogue of Vitamin E.
Antioxidant capacity was measured using the ABTS Decolorization Assay. In this assay, the pre-formed radical monocation of 2,2′-azinobis-(3-ethylbenzothiazoline-6-sulfonic acid) (ABTS*+) was generated by oxidation of ABTS with potassium persulfate and was reduced in the presence of antioxidants (Ac-SEQ ID NO: 1-NH2, Ac-SEQ ID NO: 2-NH2, Ac-SEQ ID NO: 3-NH2 or Ferulic acid-SEQ ID NO: 2-NH2). The ABTS.+ has a blue-green color, with maximum absorptions at 650, 734 and 820 nm. Antioxidants in the sample reduce ABTS.+ suppressing this color production to a degree that is proportional to their concentrations and antioxidant capacity. Quantification of absorbance was conducted at 734 nm using a Polarstar Omega equipment (BMG Labtech).

In assay [3] the test system is Primary human epidermal melanocytes. The assay is described as follows: Brightening activity: intracellular melanin content. The format is cell-based. Particulars: 7 days; for decrease in melanin content compared with positive reference control (kojic acid): 70 μM kojic acid. As for the experimental part:
Two concentrations of kojic acid were used as positive control.
(§1) Kojic acid was used as positive control.
Primary human epidermal melanocytes were incubated in 6-well plates for 4 days and then treated with the compounds to be analysed (Ac-SEQ ID NO: 1-NH2, Ac-SEQ ID NO: 2-NH2, Ac-SEQ ID NO: 3-NH2 or Ferulic acid-SEQ ID NO: 2-NH2) for 7 days. After treatment, cells were homogenized an intracellular melanin content was quantified by absorbance at 450 nm by Multiskan FC (Thermo Fisher Scientific, MA, USA).

Assay [4] has as its system HEMn cells. The assay is described as follows: Gene expression of melanogenic pathways, HEMn cells, 11-day treatment (RTqPCR). Type of assay: cell-based, human. The text has this: Changes in gene expression levels are represented as a positive or negative fold-change with regard to the basal control (untreated cells). For FIG. 16(A), bars from top to bottom in the y-axis refer to: COX-1 (Cyclooxigenase-1), MITF ([…]), MC1R (Melanocortin-1 receptor), MLAN-A (Melanoma antigen recognized by T-cells), C-KIT (Protoongogen receptor tyrosine kinase KIT), PMEL17 (Pre-melanosome protein), DCT-TYRP2 (Dopachrome tautomerase), TYRP-1 (Tyrosinase related protein 1) and TYR (Tyrosinase). For FIG. 16(B), bars from top to bottom in the y-axis refer to: BLOC-1 (Biogenesis of lysosome-related organelles complex-1), MITF ([…]), MC1R (Melanocortin-1 receptor), MLAN-A (Melanoma antigen recognized by T-cells), C-KIT (Protoongogen receptor tyrosine kinase KIT), PMEL17 (Pre-melanosome protein), DCT-TYRP2 (Dopachrome tautomerase), TYRP-1 (Tyrosinase related protein 1) and TYR (Tyrosinase). The x-axis refers to fold change versus basal control.
Changes in gene expression levels are represented as a positive or negative fold-change with regard to the basal control (untreated cells). Bars from top to bottom in the y-axis refer to: VDR (Vitamin D receptor), PMEL17 (Pre-melanosome protein) and DCT-TYRP2 (Dopachrome tautomerase). The x-axis refers to fold change versus basal control.
In the case of HEMn cells, cells were left in culture for 12 days (from day 0 to day 11, 11-day treatment) at standard culture conditions (37° C., 95% humidity, 5% CO2) and treated with non-cytotoxic concentrations of Ac-SEQ ID NO: 3-NH2 (0.1 mg/mL) or Ferulic acid-SEQ ID NO: 2-NH2 (0.05 mg/mL) from day 4 to day 11.
(§2) Untreated cells were used as basal control. Cells were then lysed for RNA extraction with a RNA purification commercial kit following manufacturer instructions (RNeasy mini kit, Qiagen, Netherlands). RNA was then quantified by nanodrop, adjusted in concentration and processed for retrotranscription to cDNA using a commercially available kit (High-Capacity cDNA Reverse Transcription kit—Thermofisher Scientific, USA). Resulting cDNA was used to perform a RTqPCR (Real Time Quantitative Polymerase Chain Reaction) using Taqman technology and a panel of probes designed to target specific genes related to melanogenesis and HEMn-HEKa and HEMn-HDFa communication.
(In general: Real-time PCR tracks product formation cycle by cycle.)

For a further assay, the system named is HEKa cells. The assay is described as follows: Gene expression of HEMn-HEKa communication and melanogenic factors, HEKa cells, 24-hour treatment (RTqPCR). The format is cell-based, human.
Excerpt: Changes in gene expression levels are represented as a positive or negative fold-change with regard to the basal control (untreated cells). Bars from top to bottom in the y-axis refer to: KITLG (KIT ligand), TP53 (Tumor protein p53), DKK1 (Dickkopf-related protein 1) and NGF (Nerve growth factor). The x-axis refers to fold change verus basal control.
Changes in gene expression levels are represented as a positive or negative fold-change with regard to the basal control (untreated cells). Bars from top to bottom in the y-axis refer to: KITLG (KIT ligand), POMC (Pro-opiomelanocortin), EDN1 (Endothelin-1) and NGF (Nerve growth factor). The x-axis refers to fold change versus basal control.
Briefly, HEKa cells were seeded in duplicate in 6-well plates at a density of 4×10^5 cells/well and maintained at standard culture conditions (37° C., 95% humidity, 5% CO2) for 24 hours. Then, cells were treated with non-cytotoxic concentrations of Ac-SEQ ID NO: 3-NH2 (0.1 mg/mL) or Ferulic acid-SEQ ID NO: 2-NH2 (0.05 mg/mL) for an additional 24 hours.
as §2

The subject of assay [5] is recombinant mushroom tyrosinase. The assay is described as follows: Mushroom tyrosinase activity in tubo (L-DOPA). Type of assay: biochemical. The procedure: as §1, §1
After 2 hours' reaction at room temperature, the absorbance at 450 nm of each well was determined using the microplate reader Multiskan FC (Thermo Fisher Scientific, MA, USA), which is directly proportional to the amount of dopachrome in the reaction mixture.

Assay [6] has as its system HEMn cells. The assay is described as follows: Gene expression of melanogenic pathways, HEMn cells, 24-hour treatment (RTqPCR). The format is cell-based, human. Particulars: 0.1 mg/mL, treatment at 24 h. The text has this: Changes in gene expression levels are represented as a positive or negative fold-change with regard to the basal control (untreated cells). For FIG. 16(A), bars from top to bottom in the y-axis refer to: COX-1 (Cyclooxigenase-1), MITF ([…]), MC1R (Melanocortin-1 receptor), MLAN-A (Melanoma antigen recognized by T-cells), C-KIT (Protoongogen receptor tyrosine kinase KIT), PMEL17 (Pre-melanosome protein), DCT-TYRP2 (Dopachrome tautomerase), TYRP-1 (Tyrosinase related protein 1) and TYR (Tyrosinase). […]
Untreated cells were used as basal control. […] RNA was then quantified by nanodrop, adjusted in concentration and processed for retrotranscription to cDNA using a commercially available kit (High-Capacity cDNA Reverse Transcription kit—Thermofisher Scientific, USA). Resulting cDNA was used to perform a RTqPCR (Real Time Quantitative Polymerase Chain Reaction) using Taqman technology and a panel of probes designed to target specific genes related to melanogenesis and HEMn-HEKa and HEMn-HDFa communication.

For the compound `O=C1O[C@H]([C@@H](O)CO)C(O)=C1O` [ascorbic acid, reference compound], the “reduction of DPPH” value in assay [1] (30 μM, positive control) is on record as 31.3%; in assay [1] (60 μM, positive control), 67.6%.
For “Ac-His-Trp-Phe-Lys-NH2 (Ac-HWFK-NH2) [Ac-SEQ ID NO: 2-NH2]”, the trolox equivalents came to 22 µM in assay [2] (0.05 mg/mL), 49 µM in assay [2] (0.1 mg/mL) and 130 µM in assay [2] (0.5 mg/mL). In addition, the “antioxidant power compared with AA-2G and MAP” value in assay [2] (the higher concentration tested (0.5 mg/mL)) was “higher antioxidant power than AA-2G and MAP”. Besides, the “brightening or whitening activity compared with kojic acid” value in assay [3] (all the concentrations tested (0.01, 0.05, 0.1 mg/ml), kojic acid 10 and 50 μM) was “significantly higher brightening or whitening activity”. In addition, the “increased brightening activity relative to the activity of the two concentrations of kojic acid” value in assay [3] (all the concentrations tested, kojic acid 10 and 50 μM) was “two to more than four times”.
Turning to “Ac-Leu-His-Trp-Phe-Arg-Ala-NH2 (Ac-LHWFRA-NH2) [Ac-SEQ ID NO: 3-NH2]”, in the assay on HEMn cells [4] (0.1 mg/mL), the “C-KIT gene expression, fold change versus basal control” value is −1.78 fold change; the “COX-1 gene expression, fold change versus basal control” value is −1.51 fold change; the “DCT-TYRP2 gene expression, fold change versus basal control” value is recorded as −1.40 fold change; the “MC1R gene expression, fold change versus basal control” value is on record as −1.28 fold change. Moreover, in the assay with HEMn cells [4] (0.1 mg/mL), the “MITF gene expression, fold change versus basal control” value is −1.48 fold change; the “MLAN-A gene expression, fold change versus basal control” value is −1.88 fold change; the “PMEL17 gene expression, fold change versus basal control” value is listed as −2.30 fold change; the “TYR gene expression, fold change versus basal control” value was −1.66 fold change. In addition, the “TYRP-1 gene expression, fold change versus basal control” value in the assay with HEMn cells [4] (0.1 mg/mL) was −1.64 fold change. The trolox equivalents in assay [2] (0.01 mg/mL) was found to be 28 µM. Moreover, the trolox equivalents in assay [2] (0.05 mg/mL) was 59 µM. Also, the trolox equivalents in assay [2] (0.1 mg/mL) was determined as 74 µM. For the same compound, in the assay on HEKa cells (0.1 mg/mL), the DKK-1 gene expression entry is listed as “upregulation”, the KITLG gene expression result is “downregulation”, the NGF gene expression result is given as “downregulation” and the TP53 gene expression result is recorded as “downregulation”. In addition, in assay [5] (0.5 mg/mL), the “decrease in tyrosinase activity” value was 30.6%. Further, in assay [5] (1 mg/mL), the “decrease in tyrosinase activity” value is 58.1%. Besides, the “expression of genes of the melanogenic pathway” value in the assay with HEMn cells [6] is “tendency to downregulate gene expression was also observed”. For the same compound, the “decrease in melanin content” value in assay [3] (0.1 mg/mL) is listed as 49.3%. Also, in assay [3], the “decrease in melanin content compared with positive reference control (kojic acid)” value was “higher than the positive reference control”.
Turning to “Ferulic acid-His-Trp-Phe-Lys-NH2 [Ferulic acid-SEQ ID NO: 2-NH2]”, the DCT-TYRP2 expression entry in the assay with HEMn cells [4] (0.05 mg/mL) is “slight tendency to downregulate”. Also, the PMEL17 expression result with HEMn cells [4] (0.05 mg/mL) was “slight tendency to downregulate”. The “VDR gene expression, fold change versus basal control” value with HEMn cells [4] (0.05 mg/mL) is 1.48 fold change. Besides, the trolox equivalents in assay [2] (0.01 mg/mL) came to 59 µM; in assay [2] (0.05 mg/mL), 112 µM; in assay [2] (0.1 mg/mL), 113 µM. In addition, the “antioxidant power compared with MAP” value in assay [2] (at this same concentration (0.05 mg/mL)) is “equals MAP values of trolox equivalents”. In assay [2] (concentrations >0.05 mg/mL), the “antioxidant power compared with AA-2G” value is on record as “higher than the one of AA-2G”. Moreover, the EDN1 gene expression entry with HEKa cells (0.05 mg/mL) is recorded as “downregulation”. Besides, the KITLG gene expression entry with HEKa cells (0.05 mg/mL) is on record as “downregulation”. Besides, the NGF gene expression result with HEKa cells (0.05 mg/mL) is “downregulation”. The POMC gene expression result in the assay with HEKa cells (0.05 mg/mL) was “downregulation”. In addition, the results for the “decrease in tyrosinase activity” value in assay [5] (0.05 mg/mL), in assay [5] (0.1 mg/mL) and in assay [5] (0.5 mg/mL) were 12%, 46.5% and 71%, respectively. The “reduction of DPPH” value in assay [1] (0.05 mg/mL, 300 μM DPPH, 30 minutes) was 48.3%; in assay [1] (0.1 mg/mL, 300 μM DPPH, 30 minutes), 72.9%; in assay [1] (0.5 mg/mL, 300 μM DPPH, 30 minutes) it was 90.6%. In addition, in assay [3] (0.05 mg/mL), the “decrease in melanin content” value was 36%. For the same compound, the “decrease in melanin content compared with positive reference control (kojic acid)” value in assay [3] is reported as “comparable”.
